The target of assay [1] is T1, Human recombinant adenosine A2A receptors (Homo sapiens, UniProt P29274).
T1 construct: expressed in transfected cells; host or cells: HEK-293 cells (membrane preparation)
In words: Human adenosine A2A receptor binding assay ([3H]CGS-21680). The conditions noted are these: for Ki: membranes of HEK-293 cells, 50 nM [3H]CGS-21680, 90 minutes at 25° C., read-out: hA2A Ki; for activity as dual antagonists of both A2A and A1 receptors: summary in words of the A2A and A1 binding results of Table 2. On the procedure:
2.2 Human Adenosine A2A Receptor Binding Assay
Test compound is weighed, dissolved in DMSO to make a stock solution of 10 mM, diluted with DMSO to prepare working solutions, then 100-fold diluted to the indicated concentrations. Human recombinant adenosine A2A receptors expressed in HEK-293 cells were used to prepare membranes in incubation buffer (50 mM Tris-HCl, pH 7.4, 10 mM MgCl2, 1 mM EDTA, 2 U/ml Adenosine Deaminase). Test compound or vehicle (2.2 μL) was added in 200 μL of membranes and incubated with 20 μL of 50 nM [^3H] […] Non-specific binding was estimated in the presence of 50 μM NECA (5′-N-ethylcarboxamidoadenosine). The incubation was stopped by vacuum filtration onto 0.3% PEI (polyethylenimine) presoaked GF/B filters using a harvester followed by four washes with ice-cold 50 mM Tris-HCl, pH 7.4, and the radioactivity on GF/B filtermats counted in a scintillation counter (PerkinElmer TOPCOUNT™) to determine [^3H] […] Final concentration of vehicle DMSO is 1%.
(§1) Data is fitted using the non-linear curve fitting routines in Meth-IQ software (ID Business Solutions Ltd., UK). IC50 is converted to Ki by Cheng-Prusoff equation: Ki=IC50/(1+[L]/KD) where [L] is concentration of radiolabeled ligand used in the assay.

The target in assay [2] is T2, Human recombinant adenosine A1 receptors (Homo sapiens, UniProt P30542).
T2 construct: expressed in transfected cells; host or cells: CHO-K1 cells (membrane preparation)
T2 sequence (P30542 1-326): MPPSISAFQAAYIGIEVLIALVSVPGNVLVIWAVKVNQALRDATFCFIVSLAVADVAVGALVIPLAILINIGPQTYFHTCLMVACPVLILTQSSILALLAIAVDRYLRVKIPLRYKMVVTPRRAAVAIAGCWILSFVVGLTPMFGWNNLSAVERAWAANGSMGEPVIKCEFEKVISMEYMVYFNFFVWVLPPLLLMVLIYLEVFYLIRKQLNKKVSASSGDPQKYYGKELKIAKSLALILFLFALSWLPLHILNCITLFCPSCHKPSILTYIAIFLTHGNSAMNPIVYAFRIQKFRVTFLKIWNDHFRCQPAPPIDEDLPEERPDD
As to the kind of experiment: Human adenosine A1 receptor binding assay ([3H]DPCPX). The note with it: membranes of CHO-K1 cells, 1 nM [3H]DPCPX, 90 minutes at 25° C.; read-out: hAl Ki. Here is the method:
2.1 Human Adenosine A1 Receptor Binding Assay
Test compound is weighed, dissolved in DMSO to make a stock solution of 10 mM, diluted with DMSO to prepare working solutions, then 100-fold diluted to the indicated concentrations. Human recombinant adenosine A1 receptors expressed in CHO-K1 cells were used to prepare membranes in incubation buffer (20 mM HEPES (4-(2-hydroxyethyl)-1-piperazineethanesulfonic acid) pH 7.4, 10 mM MgCl2, 100 mM NaCl). Test compound or vehicle (2.2 μL) was added in 200 μL of membranes and incubated with 20 μL of 1 nM [^3H] DPCPX (8-cyclopentyl-1,3-dipropylxanthine) for 90 minutes at 25° C. Non-specific binding was estimated in the presence of 100 μM R(−)-PIA ((R)—N-(1-methyl-2-phenylethyl)adenosine). The incubation was stopped by vacuum filtration onto 0.3% PEI (polyethylenimine) presoaked GF/B filters using a harvester followed by four washes with ice-cold 50 mM Tris-HCl, pH 7.4, and the radioactivity on GF/B filtermats counted in a scintillation counter (PerkinElmer Topcount™) to determine [^3H] DPCPX specifically bound. Final concentration of vehicle DMSO is 1%.
as §1

The term Ki denotes a dissociation constant, usually derived from enzyme kinetics or from competition with a known ligand.

T1 sequence (P29274 whole entry): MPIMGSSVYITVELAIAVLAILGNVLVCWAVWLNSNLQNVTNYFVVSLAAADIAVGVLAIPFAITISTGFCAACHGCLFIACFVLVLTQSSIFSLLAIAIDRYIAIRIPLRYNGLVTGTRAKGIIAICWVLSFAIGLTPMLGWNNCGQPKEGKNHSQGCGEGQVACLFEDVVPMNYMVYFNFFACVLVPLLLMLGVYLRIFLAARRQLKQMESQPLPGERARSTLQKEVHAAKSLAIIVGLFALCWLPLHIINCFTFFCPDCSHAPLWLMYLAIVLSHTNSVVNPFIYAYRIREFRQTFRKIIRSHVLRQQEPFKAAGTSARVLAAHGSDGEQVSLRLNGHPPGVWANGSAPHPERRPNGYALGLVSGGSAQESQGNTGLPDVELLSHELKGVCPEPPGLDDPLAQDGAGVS

`N#Cc1cc(-c2nc(N)nc3c2cnn3Cc2c(F)cc(N)cc2F)ccn1` [Compound 226, 4-(6-amino-1-(4-amino-2,6-difluorobenzyl)-1H-pyrazolo[3,4-d]pyrimidine-4-yl)picolinonitrile]: the Ki in assay [1] is 1 to 5 µM; in assay [2], more than 10 µM.
On the same counts, the results for `N#Cc1cccc(-c2nc(N)nc3c2cnn3Cc2c(F)cccc2F)n1` [Compound 231, 6-(6-amino-1-(2,6-difluorobenzyl)-1H-pyrazolo[3,4-d]pyrimidine-4-yl)picolinonitrile] are less than 0.02 µM and 0.1 to 1 µM.
As for `N#Cc1cccc(-c2nc(N)nc3c2cnn3Cc2ccc(N)cc2F)n1` [Compound 219, 6-[6-amino-1-[(4-amino-2-fluoro-phenyl)methyl]pyrazolo[3,4-d]pyrimidine-4-yl]pyridine-2-carbonitrile], the Ki was less than 0.02 µM in assay [1] and 0.1 to 1 µM in assay [2].
As for `Cc1cc(Cn2ncc3c(-c4cccc(C#N)c4F)nc(N)nc32)ccc1N` [Compound 206, 3-(6-amino-1-(4-amino-3-methylbenzyl)-1H-pyrazolo[3,4-d]pyrimidine-4-yl)-2-fluorobenzonitrile], the Ki was less than 0.02 µM in assay [1] and not above 0.1 µM in assay [2]. In addition, the “activity as dual antagonists of both A2A and A1 receptors” value (“activity as dual antagonists” below) in assay [1] is listed as “potent activity as dual antagonists”.
With `N#Cc1cccc(-c2nc(N)nc3c2cnn3Cc2ccc(N)cc2)n1` [Compound 215, 6-(6-amino-1-(4-aminobenzyl)-1H-pyrazolo[3,4-d]pyrimidine-4-yl)picolinonitrile], the Ki in assay [1] is 0.02 to 0.2 µM; in assay [2], 0.1 to 1 µM.
`N#Cc1cc(-c2nc(N)nc3c2cnn3Cc2ccc(N)cc2)ccn1` [Compound 218, 4-(6-amino-1-(4-aminobenzyl)-1H-pyrazolo[3,4-d]pyrimidine-4-yl)picolinonitrile]: the Ki in assay [1] lay within 1 to 5 µM; in assay [2], 1 to 10 µM.
For the molecule `CCn1c(=O)c2c(nc(/C=C/c3ccc(OC)c(OC)c3)n2C)n(CC)c1=O` [Istradefylline, reference compound], the Ki in assay [2] was in the range of 0.1 to 1 µM.
In the case of `Cc1cc(Cn2ncc3c(-c4cncc(C#N)c4)nc(N)nc32)ccc1N` [Compound 229, 5-(6-amino-1-(4-amino-3-methylbenzyl)-1H-pyrazolo[3,4-d]pyrimidine-4-yl)nicotinonitrile], the values for the Ki in assay [1] and in assay [2] were 1 to 5 µM and more than 10 µM, respectively.
On the same counts, the results for `N#Cc1ccnc(-c2nc(N)nc3c2cnn3Cc2ccc(N)c(C(F)(F)F)c2)c1` [Compound 235, 2-[6-amino-1-[[4-amino-3-(trifluoromethyl)phenyl]methyl]pyrazolo[3,4-d]pyrimidine-4-yl]pyridine-4-carbonitrile] are less than 0.02 µM and 0.1 to 1 µM.
On the same counts, the results for `N#Cc1cncc(-c2nc(N)nc3c2cnn3Cc2c(F)cc(N)cc2F)c1` [Compound 225, 5-[6-amino-1-[(4-amino-2,6-difluoro-phenyl)methyl]pyrazolo[3,4-d]pyrimidine-4-yl]pyridine-3-carbonitrile] are 1 to 5 µM and 1 to 10 µM.
As for `N#Cc1cncc(-c2nc(N)nc3c2cnn3Cc2ccc(N)cc2)c1` [Compound 217, 5-(6-amino-1-(4-aminobenzyl)-1H-pyrazolo[3,4-d]pyrimidine-4-yl)nicotinonitrile], the inhibitory constant (Ki) in assay [1] is 1 to 5 µM; in assay [2] it was more than 10 µM.
On the same counts, the results for `N#Cc1cccc(-c2nc(N)nc3c2cnn3Cc2c(F)cc(N)cc2F)n1` [Compound 223, 6-[6-amino-1-[(4-amino-2,6-difluoro-phenyl)methyl]pyrazolo[3,4-d]pyrimidine-4-yl]pyridine-2-carbonitrile] are less than 0.02 µM and 0.1 to 1 µM.
For `Cc1cc(Cn2ncc3c(-c4cc(C#N)ccn4)nc(N)nc32)ccc1N` [Compound 228, 2-(6-amino-1-(4-amino-3-methylbenzyl)-1H-pyrazolo[3,4-d]pyrimidine-4-yl)isonicotinonitrile], the Ki in assay [1] was 0.02 to 0.2 µM; in assay [2], 0.1 to 1 µM.
For the molecule `N#Cc1cc(-c2nc(N)nc3c2cnn3Cc2ccc(N)cc2F)ccn1` [Compound 222, 4-(6-amino-1-(4-amino-2-fluorobenzyl)-1H-pyrazolo[3,4-d]pyrimidine-4-yl)picolinonitrile], the Ki in assay [1] is 1 to 5 µM; in assay [2] it was more than 10 µM.
In the case of `N#Cc1ccnc(-c2nc(N)nc3c2cnn3Cc2c(F)cccc2F)c1` [Compound 232, 2-(6-amino-1-(2,6-difluorobenzyl)-1H-pyrazolo[3,4-d]pyrimidine-4-yl)isonicotinonitrile], the Ki is 0.02 to 0.2 µM in assay [1] and 0.1 to 1 µM in assay [2].
With `N#Cc1cccc(-c2nc(N)nc3c2cnn3Cc2ccc(N)cc2F)c1` [Compound 209, 3-(6-amino-1-(4-amino-2-fluorobenzyl)-1H-pyrazolo[3,4-d]pyrimidine-4-yl)benzonitrile], the Ki in assay [1] is less than 0.02 µM; in assay [2], 0.1 to 1 µM.
As to `N#Cc1cccc(-c2nc(N)nc3c2cnn3Cc2c(F)cc(N)cc2F)c1` [Compound 207, 3-(6-amino-1-(4-amino-2,6-difluorobenzyl)-1H-pyrazolo[3,4-d]pyrimidine-4-yl)benzonitrile], the values for the Ki in assay [1] and in assay [2] were less than 0.02 µM and not above 0.1 µM, respectively. For the same molecule, the “activity as dual antagonists” value in assay [1] was “potent activity as dual antagonists”.
As to `N#Cc1cc(-c2nc(N)nc3c2cnn3Cc2c(F)cccc2F)ccn1` [Compound 234, 4-[6-amino-1-[(2,6-difluorophenyl)methyl]pyrazolo[3,4-d]pyrimidine-4-yl]pyridine-2-carbonitrile], the Ki in assay [1] fell in the range of 0.2 to 1 µM; in assay [2], 1 to 10 µM.
For the molecule `N#Cc1ccnc(-c2nc(N)nc3c2cnn3Cc2c(F)cc(N)cc2F)c1` [Compound 224, 2-[6-amino-1-[(4-amino-2,6-difluoro-phenyl)methyl]pyrazolo[3,4-d]pyrimidine-4-yl]pyridine-4-carbonitrile], the Ki in assay [1] fell in the range of 0.02 to 0.2 µM; in assay [2] it was 0.1 to 1 µM.
On the same counts, the results for `N#Cc1ccnc(-c2nc(N)nc3c2cnn3Cc2ccc(N)cc2F)c1` [Compound 220, 2-(6-amino-1-(4-amino-2-fluorobenzyl)-1H-pyrazolo[3,4-d]pyrimidine-4-yl)isonicotinonitrile] are 0.02 to 0.2 µM and 0.1 to 1 µM.
On to `N#Cc1cccc(-c2nc(N)nc3c2cnn3Cc2ccc(N)c(C(F)(F)F)c2)c1F` [Compound 211, 3-(6-amino-1-(4-amino-3-(trifluoromethyl)benzyl)-1H-pyrazolo[3,4-d]pyrimidine-4-yl)-2-fluorobenzonitrile], for which the Ki in assay [1] was less than 0.02 µM; in assay [2], not above 0.1 µM. Also, the “activity as dual antagonists” value in assay [1] was “potent activity as dual antagonists”.
In the case of `Cc1cc(Cn2ncc3c(-c4cccc(C#N)n4)nc(N)nc32)ccc1N` [Compound 227, 6-(6-amino-1-(4-amino-3-methylbenzyl)-1H-pyrazolo[3,4-d]pyrimidine-4-yl)picolinonitrile], the figures for the Ki in assay [1] and in assay [2] were less than 0.02 µM and 0.1 to 1 µM, respectively.
As for `N#Cc1cncc(-c2nc(N)nc3c2cnn3Cc2c(F)cccc2F)c1` [Compound 233, 5-(6-amino-1-(2,6-difluorobenzyl)-1H-pyrazolo[3,4-d]pyrimidine-4-yl)nicotinonitrile], the results for the Ki in assay [1] and in assay [2] were 0.2 to 1 µM and 1 to 10 µM, respectively.
As for `N#Cc1ccnc(-c2nc(N)nc3c2cnn3Cc2ccc(N)cc2)c1` [Compound 216, 2-(6-amino-1-(4-aminobenzyl)-1H-pyrazolo[3,4-d]pyrimidine-4-yl)isonicotinonitrile], the values for the Ki in assay [1] and in assay [2] were 0.2 to 1 µM and 1 to 10 µM, respectively.

Source of the values: US11806350B2, “Prevention and/or treatment of CNS disorders” (ILDONG PHARMACEUTICAL CO., LTD., priority 2020, dated 2023).
